In one data set the test system is MCF-7. The experiment in a line: SRB-based cytotoxicity assay. The following applies: Homo sapiens, MCF7; MCF-7; SRB; Table 2. It is filed as cell-based, human. The protocol: (§1) For (anti)proliferation assays, 4,000-5,000 cells/well of the 96-well clustered dish were incubated for 16 hours, as described previously (Hu et al., 2008; Skehan et al., 1990). After 16 hours, culture medium was replaced with fresh medium containing different dilutions of test compounds dissolved in DMSO. Some wells were treated with 100 μl of 10% trichloroacetic acid (TCA) as a negative control and sham (medium with dimethyl sulfoxide; DMSO) treated cells were used as a positive control. After 72 hours post-incubation, medium was removed and cells were fixed with 10% TCA at 4° C. for 1 hour. TCA was removed and cells were washed with cold tap water, and plate was air-dried, followed by addition of 50 μl of 0.4% SRB staining solution to each well. After 30 minutes incubation, SRB staining solution was removed. Cells were washed with 1% acetic acid solution, and then washed with tap water to remove unbound staining solution, followed by air-drying. 200 μl of 10 mM (pH10.5) trizma base buffer was added to each well to solubilise macromolecules. SRB stained macromolecules were determined at a 540 nm wavelength using an automated plate reader (Synergy H4 Hybrid Multi-Mode Microplate Reader, BioTek, Winooski, Vt.). Cell growth (inhibition) was calculated by the following formula:
(§2) % cells proliferation=[(AT−CT)/(ST−CT)]×100
(§3) wherein AT=absorbance of treated cells, CT=absorbance of negative control cells, and ST=absorbance of sham treated cells. IC50 values were calculated from sigmoidal dose-response curves generated by two independent biological replicates, with quadruplicate in each set by using Graph Pad Prism v.5.04 software. […] The combinational index (CI) was calculated as described previously (Chou 2006). If the CI values were less than, equal to or more than 1, it indicates a synergistic, additive or antagonistic effect respectively (Chou 2006). CI values were determined from four independent experiments.

In another data set the test system is MDA-MB-231. The experiment in a line: SRB-based cytotoxicity assay. It is filed as cell-based, human. The following applies: for IC50: Homo sapiens, MDA-MB-231, SRB, Table 2; for Cell survival rate: MDA-MB231. As for the experimental part:
as §1, §2, §3

The next data set relates to MDA-MB-468. The data set can be described thus: SRB-based cytotoxicity assay. The following applies: for IC50: Homo sapiens, MDA-MB-468, SRB, Table 2. It is filed as cell-based, human. The protocol: as §1, §2, §3
The test system of data set [1] is HeLa cells. The data set can be described thus: γ-H2AX immunostaining (DNA damage). Format: cell-based. The following applies: 3.0 μM. As for the experimental part: CTR-17 caused neither impediment of DNA replication nor DNA damage. […] The detection of EdU incorporated into DNA was carried out by fluorescence microscopy. […] Etoposide (50.0 μM) was used as a positive control.

For the next data set, the target named is T1, tubulin (Sus scrofa, UniProt P02550+P02554).
T1 construct: purchased Cytoskeleton Inc. (Denver, Colo.) T240
The data set can be described thus: Dissociation constant of CTR-tubulin binding (tryptophan fluorescence). Set-up: species or system porcine. The following applies: purified tubulin 0.4 μM, 30 minutes at 37° C. The protocol: Purified tubulin (0.4 μM) was dissolved in 25 mM PIPES buffer (pH 6.8) and incubated in the presence or absence of different concentrations of CTR-17 (or CTR-20) for 30 minutes at 37° C. The intrinsic fluorescence of the tryptophan residues in the tubulin heterodimers was monitored by excitation of the reaction mixture at 295 nm and the emission spectra at the 315-370 nm wavelength range. All measurements were corrected for the inner filter using the formula Fcorrected=Fobserved×antilog [(Aex+Aem)/2], where Aex and Aem are the absorbance of the reaction mixture at the excitation and emission wavelengths, respectively. Graph Pad Prism software was used to determine the dissociation constant of the CTR compounds binding to tubulin using the following formula
wherein ΔF is the changes in fluorescence intensity of tubulin when bound with the CTR compounds, ΔFmax is the maximum change in the fluorescence intensity when tubulin is bound with the compounds, C is the concentration of the CTR compounds, and Kd is the dissociation constant of the CTR compounds bound to tubulin.

In data set [2] the target is T2, tubulin (colchicine-binding site) (Sus scrofa, UniProt P02550+P02554).
T2 construct: purchased Cytoskeleton Inc. (Denver, Colo.) T240
The experiment in a line: Colchicine competition assay. Set-up: species or system porcine. The following applies: colchicine 1.0-8.0 μM.

A further data set concerns HeLa S3 cells. The experiment in a line: Trypan blue exclusion assay. Format: cell-based. The following applies: 1 μM; 72 hours post-treatment. As for the experimental part:
Cell survival/death was determined by trypan blue exclusion assays.

Data set [3] has as its system HeLa cells. The experiment in a line: Cell cycle analysis by flow cytometry. Format: cell-based. The following applies: 6-72 hours. As for the experimental part:
Approximately 1×10^6 cells per plate were seeded and grown overnight. Cells were then treated the next morning with test compounds, and harvested at the scheduled post-treatment times. The cell pellet was collected by centrifugation at 1,100 rpm (Allegra™ X-12 centrifuge, Beckman Coulter, Indianapolis, Ind.), followed by washing the cells twice with PBS, and fixing them with 75% ethanol for 12-24 hours at −20° C. Ethanol was removed by centrifugation at […] (Allegra™ X-12 centrifuge, Beckman Coulter); cells were suspended in PBS and centrifuged again at […] in the same rotor. The PBS was then removed and the cell pellet was resuspended and stained for 1 hour with propidium iodide (PI) staining solution (0.3% nonidet P-40, 100 μg/ml RNase A and 100 μg/ml PI in PBS). The DNA content in the different phases of the cell cycle was analysed by flow cytometry using Beckmann Coulter Cytomics FC500 (Mississauga, ON, Canada). The reversibility of drug effects was determined as follow: HeLa cells treated with a CTR compound for 12 hours were washed twice with 1×PBS, and then released them into pre-warmed drug-free complete medium for scheduled durations. The cells were then examined by confocal microscopy for their morphology or subjected to cell cycle analysis by flow cytometry after cells (DNA) were stained with propidium iodide.

Each structure is given as a SMILES string.

What is called IC50 is the concentration needed to halve the response being measured. As a reminder, the Kd is the equilibrium constant for the complex coming apart. Lower therefore signals higher affinity. As to `COc1ccccc1C(=O)/C=C/c1cc2ccccc2[nH]c1=O` [CTR-17, (E)-3-(3-(2-Methoxyphenyl)-3-oxoprop-1-enyl)quinolin-2(1H)-one], the concentration for half-maximal inhibition (IC50) with MCF-7 stood at 520 ± 170 nM; in the data set on MDA-MB-231, 410 ± 20 nM; in the data set with MDA-MB-468, 150 ± 330 nM. Moreover, the “preferentially kill cancer over non-cancer cells” value in the data set with MDA-MB-468 (MDA-MB-468 versus MCF-10A) is recorded as “up to 26 times”. Also, the “DNA damage (γ-H2AX)” value in the data set on HeLa cells [1] is given as “does not cause any notable DNA damage”. At tubulin, this compound had a Kd of 4580 ± 950 nM. Moreover, the “effect on binding of colchicine to tubulin” value in data set [2] is recorded as “inhibited the binding of colchicine to tubulin”.

Turning to `COc1ccc2[nH]c(=O)c(/C=C/C(=O)c3ccccc3OC)cc2c1` [CTR-20, (E)-6-Methoxy-3-(3-(2-methoxyphenyl)-3-oxoprop-1-enyl) quinolin-2(1H)-one], the IC50 in the data set with MCF-7 was determined as 140 ± 60 nM; with MDA-MB-231, 120 ± 90 nM; with MDA-MB-468, 120 ± 20 nM. Also, the Cell survival rate in the data set on MDA-MB-231 (single agent 0.1 μM) was 70.86 ± 4.17; in the data set with MDA-MB-231 (single agent 0.2 μM), 41.07 ± 4.58; in the data set with MDA-MB-231 (single agent 0.4 μM) it was 26.38 ± 4.73. Further, the cell death with HeLa S3 cells is given as about 70%. The compound further came in with a Kd on tubulin of 5090 ± 490 nM. In data set [2], the “effect on binding of colchicine to tubulin” value is given as “inhibited the binding of colchicine to tubulin”.

On to `COc1ccccc1C(=O)/C=C/c1cc2cccc(OC)c2[nH]c1=O` [CTR-21, (E)-8-methoxy-3-(3-(2-methoxyphenyl)-3-oxoprop-1-enyl) quinolin-2(1H)-one], for which the “concentrations that caused mitotic arrest and, eventually, cell death” value in the data set on HeLa cells [3] is over 60 nM.

As to `CCOc1ccccc1C(=O)/C=C/c1cc2ccccc2[nH]c1=O` [CTR-32, (E)-3-(3-(2-ethoxyphenyl)-3-oxoprop-1-enyl)quinolin-2(1H)-one], the “concentrations that caused mitotic arrest and, eventually, cell death” value in the data set with HeLa cells [3] is over 50 nM.

Source of the values: patent US20180344725A1, “QUINOLONE CHALCONE COMPOUNDS AND USES THEREOF” (priority 2015, published 2018).
